In general, melting point refers to the temperature of the solid-liquid transition.

In data set [1] the test system is powdery mildew of wheat (Erysiphe graminis var. tritici). The data set can be described thus: Efficacy against powdery mildew of wheat (protective spray on potted wheat seedlings). The following applies: wheat seedlings cv. Frühgold, sprayed 24 hours before dusting with oidia, evaluated after 7 days, untreated 70. The data set is classed as in vivo. The protocol: (§1) The active ingredients are formulated as a 20% strength emulsion in a mixture of 70% by weight of cyclohexanone, 20% by weight of Nekanil® LN (Lutensol® AP6, wetting agent having emulsifier and dispersing action based on ethoxylated alkylphenols) and 10% by weight of Emulphor® EL (Emulan® EL, emulsifier based on ethoxylated fatty alcohols) and diluted with water to give the desired concentration. The experiments were evaluated visually.
Leaves of wheat seedlings cv. “Frühgold” in pots were sprayed with aqueous spray mixture comprising 80% of active ingredient of Table 1 and 20% of emulsifier in the dry matter and, 24 hours after the spray coating had dried on, dusted with oidia (spores) of powdery mildew of wheat (Erysiphe graminis var. tritici). The test plants were subsequently placed in a greenhouse at from 20 to 22° C. and a relative atmospheric humidity of 75 to 80%. After 7 days, the extent of mildew development was determined.

The subject of data set [2] is leaf rust of wheat (Puccinia recondite). The data set can be described thus: Efficacy against leaf rust of wheat (spray after infection of potted wheat seedlings). It counts as in vivo. The following applies: wheat seedlings cv. Kanzler, sprayed 24 hours after dusting with spores, evaluated after 8 days, untreated 70. As to the method:
as §1
Leaves of wheat seedlings cv. “Kanzler” in pots were dusted with leaf rust spores (Puccinia recondite). The pots were then placed for 24 hours in a chamber with high atmospheric humidity (90 to 95%) at from 20 to 22° C. During this time, the spores germinated, and the germ tubes penetrated the leaf tissue. The infected plants were subsequently sprayed to runoff point with aqueous spray mixtures comprising 80% of active ingredient of Table 1 and 20% of emulsifier in the dry matter. After the spray coating had dried on, the test plants were placed in a greenhouse at from 20 to 22° C. and a relative atmospheric humidity of 65 to 70%. After 8 days, the extent of rust development on the leaves was determined.

The structures appear in SMILES notation.

For `CNC(=O)C(=NOC)c1ccccc1CON=C(C)C(=NOC)c1ccc(C=NOC)cc1` [I.54], the “% infection of the leaves after application of an aqueous preparation comprising 250 ppm of active ingredient” value in data set [1] is given as 5%. Besides, the “% infection of the leaves after application of an aqueous preparation comprising . . . ppm of active ingredient” value in data set [2] (16 ppm) came out at 0%.
Regarding `CCC(=O)N(C)c1ccc(C(=NOC)C(C)=NOCc2ccccc2C(=COC)C(=O)OC)cc1` [I.17], the “% infection of the leaves after application of an aqueous preparation comprising 250 ppm of active ingredient” value in data set [1] turned out to be 15%.
In the case of `CC=C(C(=O)OC)c1ccccc1CON=C(C)C(=NOC)c1ccc(N(C)C(C)=O)cc1` [I.40], the “% infection of the leaves after application of an aqueous preparation comprising 250 ppm of active ingredient” value in data set [1] is given as 15%. Also, in data set [2] (63 ppm), the “% infection of the leaves after application of an aqueous preparation comprising . . . ppm of active ingredient” value is 0%.
With `CCCCN(C(=O)C(C)(C)C)c1ccc(C(=NOC)C(C)=NOCc2ccccc2C(=NOC)C(=O)NC)cc1` [I.27], the “% infection of the leaves after application of an aqueous preparation comprising 250 ppm of active ingredient” value in data set [1] is given as 5%. Also, the “% infection of the leaves after application of an aqueous preparation comprising . . . ppm of active ingredient” value in data set [2] (16 ppm) came to 3%.
As for `CC=C(C(=O)OC)c1ccccc1CON=C(C)C(=NOC)c1ccc(N(CC)C(C)=O)cc1` [I.41], the “% infection of the leaves after application of an aqueous preparation comprising 250 ppm of active ingredient” value in data set [1] turned out to be 15%. Besides, the “% infection of the leaves after application of an aqueous preparation comprising . . . ppm of active ingredient” value in data set [2] (63 ppm) came out at 15%.
For the compound `CCCN(C(C)=O)c1ccc(C(=NOC)C(C)=NOCc2ccccc2C(=NOC)C(=O)NC)cc1` [I.31], the “% infection of the leaves after application of an aqueous preparation comprising 250 ppm of active ingredient” value in data set [1] came out at 15%. For the same compound, the “% infection of the leaves after application of an aqueous preparation comprising . . . ppm of active ingredient” value in data set [2] (16 ppm) came out at 0%.
With `CC=C(C(=O)OC)c1ccccc1CON=C(C)C(=NOC)c1ccc(NC(=O)C(C)(C)C)cc1` [I.43], the “% infection of the leaves after application of an aqueous preparation comprising 250 ppm of active ingredient” value in data set [1] is 15%. Moreover, the “% infection of the leaves after application of an aqueous preparation comprising . . . ppm of active ingredient” value in data set [2] (63 ppm) is 5%.
Regarding `CC=C(C(=O)OC)c1ccccc1CON=C(C)C(=NOC)c1ccc(N(C)C(=O)C(C)(C)C)cc1` [I.44], the “% infection of the leaves after application of an aqueous preparation comprising . . . ppm of active ingredient” value in data set [2] (63 ppm) was 5%.
For the compound `CCC(=O)N(C)c1ccc(C(=NOC)C(C)=NOCc2ccccc2C(=NOC)C(=O)NC)cc1` [I.5], in data set [1], the “% infection of the leaves after application of an aqueous preparation comprising 250 ppm of active ingredient” value was 5%. Moreover, the “% infection of the leaves after application of an aqueous preparation comprising . . . ppm of active ingredient” value in data set [2] (63 ppm) is on record as 0%.
In the case of `CCC(=O)N(CC)c1ccc(C(=NOC)C(C)=NOCc2ccccc2C(=COC)C(=O)OC)cc1` [I.18], the “% infection of the leaves after application of an aqueous preparation comprising 250 ppm of active ingredient” value in data set [1] is 5%.
As to `COC=C(C(=O)OC)c1ccccc1CON=C(C)C(=NOC)c1ccc(C=NOC)cc1` [I.59], in data set [1], the “% infection of the leaves after application of an aqueous preparation comprising 250 ppm of active ingredient” value came out at 0%. In addition, in data set [2] (63 ppm), the “% infection of the leaves after application of an aqueous preparation comprising . . . ppm of active ingredient” value stood at 10%.
Consider `CO/N=C(/C(C)=N/OCc1ccccc1/C(=N\OC)C(=O)OC)c1ccc(N(C)C(=O)C(C)(C)C)cc1` [I.12], for which the melting point lay within 111 to 113 °C. Besides, the “% infection of the leaves after application of an aqueous preparation comprising 250 ppm of active ingredient” value in data set [1] is 5%. For the same compound, the “% infection of the leaves after application of an aqueous preparation comprising . . . ppm of active ingredient” value in data set [2] (63 ppm) amounted to 15%.
Take `CNC(=O)C(=NOC)c1ccccc1CON=C(C)C(=NOC)c1ccc(N(C)C(C)=O)cc1` [I.29]: the “% infection of the leaves after application of an aqueous preparation comprising . . . ppm of active ingredient” value in data set [2] (16 ppm) came to 5%.
With `CCN(C(C)=O)c1ccc(C(=NOC)C(C)=NOCc2ccccc2C(=NOC)C(=O)NC)cc1` [I.30], in data set [2] (16 ppm), the “% infection of the leaves after application of an aqueous preparation comprising . . . ppm of active ingredient” value was 15%.
Regarding `C#CCON=C(C(C)=NOCc1ccccc1C(=COC)C(=O)OC)c1ccc(C(C)=NOCC)cc1` [I.56], the “% infection of the leaves after application of an aqueous preparation comprising . . . ppm of active ingredient” value in data set [2] (63 ppm) is listed as 15%.
Regarding `C#CCON=C(C(C)=NOCc1ccccc1C(=COC)C(=O)OC)c1ccc(C(C)=NOC)cc1` [I.57], in data set [1], the “% infection of the leaves after application of an aqueous preparation comprising 250 ppm of active ingredient” value came out at 0%. Besides, the “% infection of the leaves after application of an aqueous preparation comprising . . . ppm of active ingredient” value in data set [2] (63 ppm) worked out at 15%.
On the same counts, the results for `CC=C(C(=O)OC)c1ccccc1CON=C(C)C(=NOC)c1ccc(C=NOC)cc1` [I.58] are 0% and 0%.
For the compound `CCCN(C(=O)C(C)(C)C)c1ccc(C(=NOC)C(C)=NOCc2ccccc2C(=NOC)C(=O)NC)cc1` [I.32], in data set [1], the “% infection of the leaves after application of an aqueous preparation comprising 250 ppm of active ingredient” value is 15%. Moreover, the “% infection of the leaves after application of an aqueous preparation comprising . . . ppm of active ingredient” value in data set [2] (16 ppm) is listed as 0%.
On to `CCC(=O)Nc1ccc(C(=NOC)C(C)=NOCc2ccccc2C(=COC)C(=O)OC)cc1` [I.16], for which, in data set [1], the “% infection of the leaves after application of an aqueous preparation comprising 250 ppm of active ingredient” value is 5%.
Take `CNC(=O)/C(=N/OC)c1ccccc1CO/N=C(C)/C(=N/OC)c1ccc(/C(C)=N/OC)cc1` [I.52]: the “% infection of the leaves after application of an aqueous preparation comprising 250 ppm of active ingredient” value in data set [1] worked out at 15%. Further, the “% infection of the leaves after application of an aqueous preparation comprising . . . ppm of active ingredient” value in data set [2] (16 ppm) amounted to 0%.
Regarding `CO/N=C(/C(C)=N/OCc1ccccc1/C(=N\OC)C(=O)OC)c1ccc(NC(=O)C(C)(C)C)cc1` [I.11], the melting point is 114 to 116 °C.
Regarding `CC=C(C(=O)OC)c1ccccc1CON=C(C)C(=NOC)c1ccc(N(C)C(=O)CC)cc1` [I.21], in data set [1], the “% infection of the leaves after application of an aqueous preparation comprising 250 ppm of active ingredient” value came out at 5%.
For the compound `CNC(=O)C(=NOC)c1ccccc1CON=C(C)C(=NOC)c1ccc(N(OC)C(=O)OC)cc1` [I.25], in data set [1], the “% infection of the leaves after application of an aqueous preparation comprising 250 ppm of active ingredient” value is listed as 5%.
For the compound `CCCN(C(=O)CC)c1ccc(C(=NOC)C(C)=NOCc2ccccc2C(=COC)C(=O)OC)cc1` [I.19], the “% infection of the leaves after application of an aqueous preparation comprising 250 ppm of active ingredient” value in data set [1] amounted to 5%.
For `CCC(=O)N(CC)c1ccc(C(=NOC)C(C)=NOCc2ccccc2C(=NOC)C(=O)NC)cc1` [I.8], the “% infection of the leaves after application of an aqueous preparation comprising 250 ppm of active ingredient” value in data set [1] came to 0%. Also, the “% infection of the leaves after application of an aqueous preparation comprising . . . ppm of active ingredient” value in data set [2] (63 ppm) was determined as 0%.
`CNC(=O)/C(=N/OC)c1ccccc1CO/N=C(C)/C(=N/OC)c1ccc(N(C)C(=O)C(C)(C)C)cc1` [I.10] had a melting point of 168 to 170 °C.
Take `CCON=C(C)c1ccc(C(=NOC)C(C)=NOCc2ccccc2C(=NOC)C(=O)NC)cc1` [I.55]: the “% infection of the leaves after application of an aqueous preparation comprising 250 ppm of active ingredient” value in data set [1] is on record as 15%. Moreover, in data set [2] (16 ppm), the “% infection of the leaves after application of an aqueous preparation comprising . . . ppm of active ingredient” value was found to be 0%.
On to `CC=C(C(=O)OC)c1ccccc1CON=C(C)C(=NOC)c1ccc(N(CC)C(=O)CC)cc1` [I.22], for which the “% infection of the leaves after application of an aqueous preparation comprising 250 ppm of active ingredient” value in data set [1] is 15%.
For `CO/N=C(\C)c1ccc(C(=N\OC)/C(C)=N/OCc2ccccc2/C(=N\OC)C(=O)OC)cc1` [I.51], the melting point lay in the range of 112 to 114 °C.
For the compound `CCCN(C(=O)CC)c1ccc(C(=NOC)C(C)=NOCc2ccccc2C(=NOC)C(=O)NC)cc1` [I.15], in data set [1], the “% infection of the leaves after application of an aqueous preparation comprising 250 ppm of active ingredient” value is on record as 5%.
Consider `CCN(C(=O)C(C)(C)C)c1ccc(C(=NOC)C(C)=NOCc2ccccc2C(=NOC)C(=O)NC)cc1` [I.26], for which the “% infection of the leaves after application of an aqueous preparation comprising 250 ppm of active ingredient” value in data set [1] was 15%.
Turning to `CC=C(C(=O)OC)c1ccccc1CON=C(C)C(=NOC)c1ccc(N(CC)C(=O)C(C)(C)C)cc1` [I.45], the “% infection of the leaves after application of an aqueous preparation comprising 250 ppm of active ingredient” value in data set [1] turned out to be 15%. Besides, the “% infection of the leaves after application of an aqueous preparation comprising . . . ppm of active ingredient” value in data set [2] (63 ppm) is given as 15%.
Take `CC=C(C(=O)OC)c1ccccc1CON=C(C)C(=NOC)c1ccc(N(CCC)C(=O)CC)cc1` [I.23]: the “% infection of the leaves after application of an aqueous preparation comprising 250 ppm of active ingredient” value in data set [1] was determined as 15%.
In the case of `CC=C(C(=O)OC)c1ccccc1CON=C(C)C(=NOC)c1ccc(NC(=O)CC)cc1` [I.20], in data set [1], the “% infection of the leaves after application of an aqueous preparation comprising 250 ppm of active ingredient” value was 15%.
Same read-out and setting: to `CON=Cc1ccc(C(=NOC)C(C)=NOCc2ccccc2C(=NOC)C(=O)OC)cc1` [I.53] belongs 15%.
Turning to `COC=C(C(=O)OC)c1ccccc1CON=C(C)C(=NOC)c1ccc(NC(=O)C(C)(C)C)cc1` [I.13], the “% infection of the leaves after application of an aqueous preparation comprising 250 ppm of active ingredient” value in data set [1] worked out at 0%. For the same compound, the “% infection of the leaves after application of an aqueous preparation comprising . . . ppm of active ingredient” value in data set [2] (16 ppm) turned out to be 5%; in data set [2] (63 ppm), 15%.
